Data from ChEMBL document CHEMBL4732170, “Discovery of Small-Molecule Antagonists of the PWWP Domain of NSD2” (J Med Chem, 2021).
The source made the active and inactive calls. The calls are words filed in the database; no cut-off is given here.

How the values were obtained:
[1] = target: T1, Histone-lysine N-methyltransferase NSD3 (Homo sapiens) (UniProt Q9BZ95); assay: Binding affinity to NSD3 PWWP1 domain (unknown origin) assessed as aggregation temperature at 400 uM by heating at 25 to 85 degC by differential static light scattering method
T1 sequence (whole entry): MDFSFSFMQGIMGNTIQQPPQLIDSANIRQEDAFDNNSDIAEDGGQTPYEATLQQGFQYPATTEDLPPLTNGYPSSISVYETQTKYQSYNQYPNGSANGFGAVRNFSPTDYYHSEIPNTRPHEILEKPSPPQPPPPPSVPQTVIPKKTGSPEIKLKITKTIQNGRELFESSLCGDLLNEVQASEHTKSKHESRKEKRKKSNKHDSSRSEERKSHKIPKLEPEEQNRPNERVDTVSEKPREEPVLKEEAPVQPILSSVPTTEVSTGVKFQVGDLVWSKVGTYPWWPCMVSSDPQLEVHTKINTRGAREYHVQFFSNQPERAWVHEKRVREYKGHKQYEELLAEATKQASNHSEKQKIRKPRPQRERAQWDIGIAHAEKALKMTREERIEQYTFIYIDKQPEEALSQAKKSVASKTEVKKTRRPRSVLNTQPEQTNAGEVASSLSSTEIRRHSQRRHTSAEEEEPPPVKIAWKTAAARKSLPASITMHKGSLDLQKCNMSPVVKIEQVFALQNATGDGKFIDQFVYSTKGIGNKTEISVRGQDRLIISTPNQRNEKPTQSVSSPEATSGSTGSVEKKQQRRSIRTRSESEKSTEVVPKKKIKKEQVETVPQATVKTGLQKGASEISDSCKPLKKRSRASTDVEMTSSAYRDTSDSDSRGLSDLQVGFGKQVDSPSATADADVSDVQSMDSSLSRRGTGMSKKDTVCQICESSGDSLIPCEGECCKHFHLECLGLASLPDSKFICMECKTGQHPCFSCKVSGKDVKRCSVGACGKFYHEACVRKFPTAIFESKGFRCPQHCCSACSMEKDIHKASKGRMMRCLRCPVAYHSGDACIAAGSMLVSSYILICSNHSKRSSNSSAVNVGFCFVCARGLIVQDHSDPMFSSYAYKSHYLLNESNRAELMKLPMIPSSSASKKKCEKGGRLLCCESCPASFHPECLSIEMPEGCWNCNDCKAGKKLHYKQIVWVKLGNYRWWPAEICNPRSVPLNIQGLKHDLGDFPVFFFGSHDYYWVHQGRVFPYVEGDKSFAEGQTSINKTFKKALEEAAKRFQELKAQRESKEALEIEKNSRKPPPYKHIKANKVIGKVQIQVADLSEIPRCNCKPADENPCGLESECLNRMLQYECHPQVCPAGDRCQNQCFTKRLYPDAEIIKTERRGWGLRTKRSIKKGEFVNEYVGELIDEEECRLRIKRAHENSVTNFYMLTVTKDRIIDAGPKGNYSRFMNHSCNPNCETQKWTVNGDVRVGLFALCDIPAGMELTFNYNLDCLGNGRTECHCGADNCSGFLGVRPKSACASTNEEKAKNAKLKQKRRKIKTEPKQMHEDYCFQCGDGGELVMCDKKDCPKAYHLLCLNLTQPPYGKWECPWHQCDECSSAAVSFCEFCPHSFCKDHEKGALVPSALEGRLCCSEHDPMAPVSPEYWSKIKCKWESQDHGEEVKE

[2] = target: T2, Zinc finger CW-type PWWP domain protein 1 (Homo sapiens) (UniProt Q9H0M4); assay: Binding affinity to ZCWPW1 PWWP1 domain (unknown origin) assessed as aggregation temperature at 400 uM by heating at 25 to 85 degC by differential static light scattering method
T2 sequence (whole entry): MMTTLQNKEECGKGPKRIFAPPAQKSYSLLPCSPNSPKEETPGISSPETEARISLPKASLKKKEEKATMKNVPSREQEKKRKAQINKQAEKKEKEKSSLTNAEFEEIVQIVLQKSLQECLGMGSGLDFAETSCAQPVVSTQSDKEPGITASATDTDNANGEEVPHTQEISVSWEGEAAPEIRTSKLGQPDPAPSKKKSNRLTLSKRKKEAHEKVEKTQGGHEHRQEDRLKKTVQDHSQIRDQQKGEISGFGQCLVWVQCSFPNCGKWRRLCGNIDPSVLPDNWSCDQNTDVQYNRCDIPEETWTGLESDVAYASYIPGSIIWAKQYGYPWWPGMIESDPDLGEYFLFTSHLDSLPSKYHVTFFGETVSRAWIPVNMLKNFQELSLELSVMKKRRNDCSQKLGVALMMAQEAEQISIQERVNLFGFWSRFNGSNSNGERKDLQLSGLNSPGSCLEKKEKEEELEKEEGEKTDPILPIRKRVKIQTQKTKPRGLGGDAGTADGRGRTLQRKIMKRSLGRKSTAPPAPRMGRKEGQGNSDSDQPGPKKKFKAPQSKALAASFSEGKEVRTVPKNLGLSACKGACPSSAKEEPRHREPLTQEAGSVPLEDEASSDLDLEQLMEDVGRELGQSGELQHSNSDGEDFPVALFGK

`N#Cc1ccc(C(C(N)=O)N2CCC2c2ccc(Cl)cc2)cc1` (configuration not stated) was tested, and the Activity [1] was “inactive” and the Activity [2] was “inactive”.
